Read-outs that look alike come from different tables or passages of the source.
Key:
[1] = PET imaging in rhesus macaques, baseline and gabapentin blocking scan; conditions: for specific (displaceable) binding in brain by PET: coinjection of gabapentin (5 mg/kg); for brain penetration by PET: ~5 mCi i.v.
From the text: General imaging procedure: The rhesus monkey was sedated by intramuscular injection of ketamine in its housing facility. Following sedation, the animal was intubated and placed inside a primate transport cart. The animal was transported to the scanner room and laid on the scanner bed in supine position. […] Vital signs including heart rate, respiratory rate, SpO2, exhaled CO2, blood pressure and temperature were continuously monitored for the duration of the scan. One intravenous catheter was placed in the saphenous vein for administration of the tracer. One intraarterial catheter was placed in the posterior tibial artery for blood sampling. […] Selected plasma samples were analyzed for radiometabolites using radioHPLC. MRI was coregistered to the PET/CT and TACs extracted for each brain region defined on an MR atlas.
Study design: We scanned two male rhesus macaques. Each monkey was scanned two times. In the first session, we performed 3h dynamic scans (baseline) of each monkey. On the second session, the monkey underwent a blocking scan with coinjection of gabapentin (5 mg/kg).
Data analysis: Pharmacokinetic modeling using metabolite-corrected arterial input function was performed. Volume of distribution (VT), binding potential (BP) other parameters were calculated.

[2] = cited from earlier work; for patients with decreases in self-reported pain: oral
[3] = PET imaging of mice; conditions: FIG. 3F
Method: microPET/CT: mice and rats were anesthetized with isoflurane and positioned in the bed of a microPET/CT instrument. […] Animals were imaged using dynamic PET from 0 to 120 min to provide greatest contrast.
Data analysis: PET images were reconstructed using the scanner software and a rat brain atlas automatically fitted to the data using VivoQuant. Time activity curves (TACs) were extracted for multiple brain regions and spinal cord segments (lumbar, thoracic and cervical cord).

NC[C@]1(CC(=O)O)CC[C@H]([18F])CC1 [cis-[^18F]4F-GBP, cis-[^18F]4-fluoro-gabapentin]
specific (displaceable) binding in brain by PET [1]: clear specific (displaceable) binding | specific (displaceable) binding in brain by PET ([1]; listed as cis isomer): partial displacement | brain penetration by PET [1]: significant brain penetration

NCC1(CC(=O)O)CCC([18F])CC1 (stereo not drawn) [trans-[^18F]4F-GBP, trans-[^18F]4-fluoro-gabapentin]
brain penetration by PET [1]: significant brain penetration

NCC1(CC(=O)O)CCCCC1 [gabapentin]
patients with decreases in self-reported pain ([2]; diabetic neuropathy): 52% | patients with decreases in self-reported pain ([2]; postherpetic neuralgia): 46% | subjects with reduction in facial pain ([2]; trigeminal neuralgia, 43 out of 92 subjects): 46%

NCC1(CC(=O)O)CCC(F)CC1 (stereo not drawn) [cis-4F-GBP]
brain entry by PET [3]: get into the brain

NC[C@]1(CC(=O)O)CC[C@@H](F)CC1 [trans-4F-GBP]
brain entry by PET [3]: get into the brain
